The subject of the series is rodent carcinogenicity bioassays, tumor incidence. Nature of the series: CCRIS carcinogenicity studies. The essentials:
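NCI-built, expert-reviewed records of carcinogenicity and related test outcomes (mutagenicity, tumor promotion/inhibition) compiled from published and report sources, historical span 1985-2011, not updated.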

For six compounds, carcinogen call results are on record in PubChem BioAssay AID1259411 (Chemical Carcinogenesis Research Information System (CCRIS), 2018).

Active and inactive are the calls of the source. How the calls were made is not given here.

On to `CC(=O)OC/N=[N+](/C)[O-]`, for which the carcinogen call was “active; positive” (Species: FISH, Strain/Sex: MOSQUITOFISH/MALE, FEMALE, Route: IMMERSION, Dose: 0, 10 MG/L IN WATER FOR 2 HR EXPOSURE (STUDY DURATION: 40 WK), Tumor Site: Type of Lesion: LIVER: TUMOR); “active; positive” (Species: MONKEY, Strain/Sex: AFRICAN GREEN/MALE,FEMALE, Route: INTRAPERITONEAL, Dose: 1.94-9.66 G TOTAL DOSE, 1/WK FOR UP TO 89 MO, Tumor Site: Type of Lesion: LIVER: HEPATOCELLULAR CARCINOMA, HEMANGIOSARCOMA, KIDNEY: RENAL CELL CARCINOMA, ESOPHAGUS: SQUAMOUS CELL CARCINOMA, CECU, Tumor Site: Type of Lesion: LIVER: HEPATOCELLULAR CARCINOMA, HEMANGIOSARCOMA, KIDNEY: RENAL CELL CARCINOMA, ESOPHAGUS: SQUAMOUS CELL CARCINOMA, CECU); “active; positive” (Species: MONKEY, Strain/Sex: CYNOMOLGUS/MALE,FEMALE, Route: INTRAPERITONEAL, Dose: 1.94-9.66 G TOTAL DOSE, 1/WK FOR UP TO 89 MO, Tumor Site: Type of Lesion: LIVER: HEPATOCELLULAR CARCINOMA, HEMANGIOSARCOMA, KIDNEY: RENAL CELL CARCINOMA, ESOPHAGUS: SQUAMOUS CELL CARCINOMA, CECU, Tumor Site: Type of Lesion: LIVER: HEPATOCELLULAR CARCINOMA, HEMANGIOSARCOMA, KIDNEY: RENAL CELL CARCINOMA, ESOPHAGUS: SQUAMOUS CELL CARCINOMA, CECU); “active; positive” (Species: MONKEY, Strain/Sex: RHESUS/MALE,FEMALE, Route: INTRAPERITONEAL, Dose: 1.94-9.66 G TOTAL DOSE, 1/WK FOR UP TO 89 MO, Tumor Site: Type of Lesion: LIVER: HEPATOCELLULAR CARCINOMA, HEMANGIOSARCOMA, KIDNEY: RENAL CELL CARCINOMA, ESOPHAGUS: SQUAMOUS CELL CARCINOMA, CECU, Tumor Site: Type of Lesion: LIVER: HEPATOCELLULAR CARCINOMA, HEMANGIOSARCOMA, KIDNEY: RENAL CELL CARCINOMA, ESOPHAGUS: SQUAMOUS CELL CARCINOMA, CECU); “active; positive” (Species: MOUSE, Route: SUBCUTANEOUS, Dose: 0.2-0.4 MG, SINGLE DOSE, Tumor Site: Type of Lesion: UNSPECIFIED: TUMOR); “active; positive” (Species: MOUSE, Strain/Sex: BALB/FEMALE, Route: DERMAL, Dose: 0, 0.5 MG PAINTED ON ANAL REGION 3/WK FOR 24 WK (STUDY DURATION: 24 WK), Tumor Site: Type of Lesion: PERIANAL SEBACEOUS GLAND: SQUAMOUS CELL CARCINOMA, ADENOMA). The carcinogen call was “active; positive” (Species: MOUSE, Strain/Sex: BALB/MALE, Route: DERMAL, Dose: 0, 0.5 MG PAINTED ON ANAL REGION 3/WK FOR 24 WK (STUDY DURATION: 30 WK), Tumor Site: Type of Lesion: PERIANAL SEBACEOUS GLAND: SQUAMOUS CELL CARCINOMA, BLOOD VESSELS: HEMANGIOMA OR HEMANGIOENDOTHELIOMA); “active; positive” (Species: RAT, Route: INTRAPERITONEAL, SUBCUTANEOUS, Tumor Site: Type of Lesion: BILE DUCT, INTESTINES, KIDNEY, Tumor Site: Type of Lesion: BILE DUCT, INTESTINES, KIDNEY); “active; positive” (Species: RAT, Route: INTRAVENOUS, ORAL, Tumor Site: Type of Lesion: INTESTINES, KIDNEY, LIVER, Tumor Site: Type of Lesion: INTESTINES, KIDNEY, LIVER); “active; positive” (Species: RAT, Route: RECTAL, Tumor Site: Type of Lesion: INTESTINES, KIDNEY); “active; positive” (Species: RAT, Route: SUBCUTANEOUS, Dose: 12.5 MG TOTAL DOSE, 4 DOSES OVER 3 WK, Tumor Site: Type of Lesion: INTESTINES: NEOPLASMS, BILE DUCT: ADENOMA); “active; positive” (Species: RAT, Strain/Sex: DONRYU/MALE, Route: RECTAL, Dose: 1 MG, 1/D FOR 7-26 D, Tumor Site: Type of Lesion: INTESTINES (LARGE): ADENOCARCINOMA, KIDNEY: NEPHROBLASTOMA).
For the compound `ClCc1cccnc1`, the carcinogen call (Species: MOUSE, Strain/Sex: B6C3F1/FEMALE, Route: GAVAGE, Dose: 0, 100, 200 MG/KG, Dose: 0, 100, 200 MG/KG, Tumor Site: Type of Lesion: STOMACH: SQUAMOUS CELL PAPILLOMA, CARCINOMA) was “active; positive”; the carcinogen call (Species: MOUSE, Strain/Sex: B6C3F1/MALE, Route: GAVAGE, Dose: 0, 100, 200 MG/KG, Dose: 0, 100, 200 MG/KG, Tumor Site: Type of Lesion: STOMACH: SQUAMOUS CELL PAPILLOMA, CARCINOMA) is “active; positive”; the carcinogen call (Species: RAT, Strain/Sex: F344/FEMALE, Route: GAVAGE, Dose: 0, 75, 150 MG/KG FOR 83 WK (STUDY DURATION: 104 WK), Dose: 0, 75, 150 MG/KG FOR 83 WK (STUDY DURATION: 104 WK), Tumor Site: Type of Lesion: FORESTOMACH: SQUAMOUS CELL PAPILLOMA) is “equivocal”; the carcinogen call (Species: RAT, Strain/Sex: F344/MALE, Route: GAVAGE, Dose: 0, 75, 150 MG/KG, Dose: 0, 75, 150 MG/KG, Tumor Site: Type of Lesion: STOMACH: SQUAMOUS CELL PAPILLOMA OR CARCINOMA) was “active; positive”.
Take `CN(CCCC(O)c1cccnc1)N=O` (stereo unspecified): the carcinogen call by setting is: (Species: MOUSE, Strain/Sex: STRAIN-A/FEMALE, Route: INTRAPERITONEAL, Dose: 0, 10, 50 UMOL TOTAL DOSE ADMINISTERED IN SUBDOSES 3/WK FOR 7 WK (STUDY DURATION: 37 WK), Dose: 0, 10, 50 UMOL TOTAL DOSE ADMINISTERED IN SUBDOSES 3/WK FOR 7 WK (STUDY DURATION: 37 WK), Tumor Site: Type of Lesion: LUNG: TUMOR) “active; positive”; (Species: RAT, Strain/Sex: F344/MALE, Route: ORAL, Dose: 0, 5 PPM IN DRINKING WATER FOR DURATION OF STUDY (TOTAL DOSE: 0; 0.69 MMOL/KG) (STUDY DURATION: 112 WK), Dose: 0, 5 PPM IN DRINKING WATER FOR DURATION OF STUDY (TOTAL DOSE: 0; 0.69 MMOL/KG) (STUDY DURATION: 112 WK), Tumor Site: Type of Lesion: LUNG: ADENOCARCINOMA, ADENOSQUAMOUS CARCINOMA, EXOCRINE PANCREAS: ACINAR ADENOMA OR ACINAR ADENOCARCINOMA OR DUCTAL ADEN) “active; positive”.
Turning to `Nc1nc(-c2ccc([N+](=O)[O-])o2)cs1`, the carcinogen call by setting is: (Species: RAT, Strain/Sex: F344/FEMALE, Route: ORAL, Dose: 0.166% IN DIET FOR 52 WK, Tumor Site: Type of Lesion: FORESTOMACH: PAPILLOMA, CARCINOMA, URINARY BLADDER: PAPILLOMA, CARCINOMA) “active; positive”; (Species: RAT, Strain/Sex: F344/MALE,FEMALE, Route: SUBCUTANEOUS, Dose: 10 MG/KG IN DMSO:WATER 1/WK FOR 8 WK, THEN 1.4 MG/RAT 1/WK FOR 46 WK, Tumor Site: Type of Lesion: INJECTION SITE: SARCOMA) “active; positive”.
For `CC(=O)Nc1cc(NS(=O)(=O)C(F)(F)F)c(C)cc1C`, the carcinogen call is “inactive; negative” (Species: Mouse, Strain/Sex: Strain not specified by Department of Pesticide Regulation/Female (60/Group), Route: Oral, Dose: 0, 600, 1800, 6000 ppm of 93% mefluidide in diet for 18-19 mo, study duration 19 mo, Dose: 0, 600, 1800, 6000 ppm of 93% mefluidide in diet for 18-19 mo, study duration 19 mo) and “inactive; negative” (Species: Mouse, Strain/Sex: Strain not specified by Department of Pesticide Regulation/Male (60/Group), Route: Oral, Dose: 0, 600, 1800, 6000 ppm of 93% mefluidide in diet for 18-19 mo, study duration 19 mo, Dose: 0, 600, 1800, 6000 ppm of 93% mefluidide in diet for 18-19 mo, study duration 19 mo).
On to `OCc1ccco1`, for which the carcinogen call reads like this: (Species: MOUSE, Strain/Sex: B6C3F1/FEMALE, Route: INHALATION, Dose: 0, 2, 8, 32 PPM 6 HR/D 5 D/WK FOR 105 WK (STUDY DURATION: 105 WK), Dose: 0, 2, 8, 32 PPM 6 HR/D 5 D/WK FOR 105 WK (STUDY DURATION: 105 WK)) “inactive; negative”; (Species: MOUSE, Strain/Sex: B6C3F1/MALE, Route: INHALATION, Dose: 0, 2, 8, 32 PPM 6 HR/D 5 D/WK FOR 105 WK (STUDY DURATION: 105 WK), Dose: 0, 2, 8, 32 PPM 6 HR/D 5 D/WK FOR 105 WK (STUDY DURATION: 105 WK), Tumor Site: Type of Lesion: KIDNEY: RENAL TUBULE ADENOMA, CARCINOMA) “active; positive”; (Species: RAT, Strain/Sex: F344/FEMALE, Route: INHALATION, Dose: 0, 2, 8, 32 PPM 6 HR/D 5 D/WK FOR 105 WK (STUDY DURATION: 105 WK), Dose: 0, 2, 8, 32 PPM 6 HR/D 5 D/WK FOR 105 WK (STUDY DURATION: 105 WK), Tumor Site: Type of Lesion: NOSE: LATERAL WALL, ADENOMA, RESPIRATORY EPITHELIUM ADENOMA, KIDNEY (RENAL TUBULE): ADENOMA, CARCINOMA, ADENOMA OR CARCI) “equivocal”; (Species: RAT, Strain/Sex: F344/MALE, Route: INHALATION, Dose: 0, 2, 8, 32 PPM 6 HR/D 5 D/WK FOR 105 WK (STUDY DURATION: 105 WK), Dose: 0, 2, 8, 32 PPM 6 HR/D 5 D/WK FOR 105 WK (STUDY DURATION: 105 WK), Tumor Site: Type of Lesion: NOSE: ADENOMA, CARCINOMA, OR SQUAMOUS CELL CARCINOMA) “active; positive”.
